Experimental data as given in patent US20240115531A1, “Composition for Treating Hair and Scalp” (DR. KURT WOLFF GMBH & CO. KG, priority 2020, published 2024).
Entries after “also recorded” stand apart in the source; their conditions may differ.

How the values were obtained:
[1] = tested on: Human epidermal keratinocyte cells (HaCaT); assay: MTT assay, cell viability of HaCaT keratinocytes; type: cell-based; conditions: versus control without DMG, FIG. 1
Experimental: (§1) 1. As part of an in vitro study, the effect of Na-dimethylglycinate was examined in a cell culture model with human horn-forming keratinocyte cells. For this purpose, HaCaT cells were cultured for 1, 3, 5, and 7 days in DMEM medium (including fetal calf serum and an anti biotic-anti mycotic mix) and, among other things, the viability and proliferation of the cells were determined using suitable measurement methods, and the expression of the growth factors relevant for cell growth was measured.
For this measurement, a so-called MTT assay was used to determine cellular metabolic activity as an indicator of cell viability and cytotoxicity. This colorimetric assay is based on the reduction of a yellow tetrazolium salt (3-(4,5-dimethylthiazol-2-yl)-2,5-diphenyltetrazolium bromide or MTT) to purple formazan crystals by metabolically active cells.
Human epidermal keratinocyte cells (HaCaT) were seeded in a 96-well plate at a cell density of 5,000 cells/well and cultured in medium (DMEM with 10% FBS, 1% penicillin-streptomycin, 0.5% fungizone). […]
Cell viability was determined using the MTT assay. The absorption was measured in quadruplicate and normalized to the control at 24 hours. […]

[2] = tested on: Human epidermal keratinocyte cells (HaCaT); assay: CyQUANT assay, cell proliferation of HaCaT keratinocytes; type: cell-based; conditions: versus control without DMG, FIG. 2
Experimental: as §1
A so-called CyQUANT assay was carried out to measure the proliferation. In this fluorescence-based assay, the fluorescent dye used binds to DNA (deoxyribonucleic acid), with the content of cellular DNA being a direct measure of the number of cells in a sample.
Human epidermal keratinocyte cells (HaCaT) were seeded in a 96-well plate at a cell density of 5,000 cells/well and cultured in medium (DMEM with 10% FBS, 1% penicillin-streptomycin, 0.5% fungizone). The next day and after a further 24 h as well as 48 h and 72 h of cultivation at 37° C. and 5% by volume CO2, the cell culture medium without (control) or with the active ingredient concentrations already present was changed. […]
The cell proliferation was determined using the CyQUANT assay. The fluorescence was measured in triplicate and normalized to the control at 24 hours. […]

[3] = tested on: VEGF; assay: Gene expression of VEGF by qRT-PCR in HaCaT cells; type: cell-based, human; conditions: after 24 hours of cultivation, versus control without DMG, FIG. 3
Experimental: VEGF (Vascular Endothelial Growth Factor) promotes the growth and formation of new blood and lymphatic vessels. Gene expression was measured using a standard method known as quantitative real-time PCR (qRT-PCR).
Human epidermal keratinocyte cells (HaCaT) were seeded in a 6-well plate at a cell density of 140,000 cells/well and cultured in medium (DMEM with 10% FBS, 1% penicillin-streptomycin, 0.5% fungizone) at 37° C. und 5% by volume CO2. The next day, the cell culture medium without (control) or with the active substance concentrations already present in each case was changed, and the cells were harvested after 24 hours. Gene expression was measured using qRT-PCR based on studies already published in B. V. Diaz, M.-C. Lenoir, A. Ladoux, C. Frelin, M. Demarchez, S. Michel, Journal of Biological Chemistry 2000, 275, 642-650.
The relative gene expression determined by qRT-PCR (triple determination, normalized to the respective gene expression of a constitutively expressed gene; GAPDH—glyceraldehyde-3-phosphate dehydrogenase) of VEGF is shown. Shown is the mean value with standard deviation.

## CN(C)CC(=O)[O-].[Na+] [DMG, sodium dimethylglycinate]
[1]; after 48 h of cultivation
  cell viability (MTT absorption normalized to the control at 24 hours): clear increase
[1]; after 72 h of cultivation
  cell viability (MTT absorption normalized to the control at 24 hours): clear increase
[2]; after 48 h of cultivation
  cell proliferation (CyQUANT fluorescence normalized to the control at 24 hours): clear increase
[2]; after 72 h of cultivation
  cell proliferation (CyQUANT fluorescence normalized to the control at 24 hours): clear increase
[3]
  relative gene expression of VEGF (normalized to GAPDH): significant increase; also recorded: significantly increased
